Where two headings read alike, the source gives them in different places.
Legend:
[1] = HPLC related compounds / related substances (oxidized LACE, lipoic acid, total impurities) of LACE solutions, mixing and stability studies; assay type: physicochemical
Method: Each of the solutions was also measured for degradants of lipoic acid choline ester. As mentioned earlier, the degradation mechanism of LACE is oxidative and hydrolytic, resulting in oxidized and hydrolyzed species.
• a) HPLC Method Setup: The HPLC assay consisted of a 50 minute mobile phase gradient made up of (A) 0.05M sodium phosphate monobasic, 0.005M 1-heptane sulfonic acid sodium salt, 0.2% v/v triethylamiue, adjusted to pH 4.5 with phosphoric acid; and (B) acetonitrile. The analytical column used is a YMC Pack ODS AO (4.6×250 mm, 5 μm, 120 Å), P/N AQ125052546WT; the analytical detection wavelength is 225 nm.
The eve dropper bottles with the two formulations were stored at 25° C. in a temperature-controlled incubator, and 0.5 mL (about 10 drops) sampled at each time point for analysis of related substances (by HPLC). The nitrogen blanket was not replenished, so some air got into the bottle with each sampling. This experiment was an early investigation of stability at room temperature (25±0.1° C.) with no protection from oxygen with continued sampling.
For the stability studies on both the clinical LACE-Chloride and the prototype LACE-Iodide formulation with a 1:1 molar ratio of HP-B-CD to LACE, the formulations were filtered, filled into LDPE eye dropper bottles, blanketed with nitrogen, and then placed inside barrier foil pouches with an oxygen scavenger. It is likely that some oxygen was still present in the pouch to start. After the first time point following T=0, however, the rise in oxidized LACE species stops, even at elevated temperatures, likely due to depletion of the remaining oxygen (FIG. 20).

[2] = Appearance of ophthalmic solution in stability studies; assay type: physicochemical; conditions: API (Lot# 011510)
Method: in an effort to stabilize the drug formulation further, systematic stability studies (5° C., 25° C. and 40° C.) on mid-scale R&D batches were undertaken with bottled EV06 Ophthalmic Solution in the presence and absence of oxygen scavenging packets contained in zip-lock, vapor impermeable foil pouches.

[3] = tested on: bovine calf cornea; assay: Corneal permeability, Franz Cell Diffusion apparatus; conditions: Study 1
Method: (§1) LACE is delivered from these formulations as one of two salts: LACE-chloride and LACE-iodide. […] Therefore, both LACE and lipoic acid concentrations were assayed at each time point to evaluate permeability.
(§2) • a. 6 bovine eyeballs are dissected in a sterile laminar flow hood. • b. The corneas are extracted from the eyeball, briefly rinsed in sterile double-distilled water, and submerged in 3 mL of glutathione buffer (0.1% glutathione, oxidized, 6 mM sodium phosphate, pH 7, sterile-filtered) in a sterile culture dish. • c. The corneas are kept at 5° C. and used within 24 hours of excision. • d. Six 5 mL Franz vertical diffusion cells are cleaned with distilled water and isopropanol and air dried in a laminar flow cabinet prior to set up. • e. A small stir bar is placed within the receptor fluid chamber. The bottle of receptor fluid (5 mM phosphate-buffered saline with 0.1% Tween 20, pH 7.4, sterile-filtered) is tared on an analytical balance, and 4.5 mL of it is added to each Franz cell. The exact weight of the starting receptor fluid is recorded. • f. The cornea is gently rinsed of glutathione buffer with receptor fluid, and is placed on the donor pedestal. The donor chamber is placed on top of the cornea, and the entire assembly is fastened to the pedestal with a metal clip. At this point, 0.5 mL of additional receptor fluid is added via the sampling arm, until the fluid level reaches the point marked on the arm with a black line. The weight of this addition is also recorded. • g. The Franz diffusion apparatus is connected to a heater unit, and the temperature is raised to 37° C. When that temperature is reached, the formulation (“the donor solution”) is added to the donor chamber. • h. 0.2 mL of donor solution is added. Both the donor chamber and sampling arm are covered by paraffin when not in use to prevent evaporation. • i. Sampling is done via Drummond pipet, and only through the sampling arm. 200-300 μL of receptor fluid is sampled from each cell at each time point. • j. The sample is added to an amber glass HPLC vial with 0.3 mL glass insert, and is weighed. […]

[4] = General properties of LACE (solubility, solution pH, Log P, hygroscopicity); assay type: physicochemical; conditions: for solubility: read-out: Solubility Profile
[5] = RP-HPLC (UV / ELSD) measurement of LACE micellar / associative (aggregated) species; assay type: physicochemical; conditions: for equilibrium concentration of aggregates (% of the API peak): aqueous solution
Excerpt: While searching for causes for irritation, it was discovered that LACE, when dissolved in water, forms micelles and micellar aggregates, common to compounds that are amphiphilic in nature. As definition, examples of micelle-forming compounds are phosphatidyl choline, pegylated phosphatidyl choline, PEG-stearate, […], etc. While the micelle-formation phenomenon of LACE is not unexpected due to the amphiphilic nature of the molecule, the formation of these aggregates at lower temperatures were surprising. The presence of the aggregates was measured by a RP-HPLC method developed in-house. The measurement could be performed both with HPLC-UV and HPLC-ELSD. […] The equilibrium concentration of LACE Iodide aggregates are 39-41% of the API peak. In comparison, the equilibrium concentration of LACE chloride is <1%, after dispersion with agitated stirring.
• Two 200-g batches of 1.5% LACE Chloride were prepared at 25° C. after vehicle was deoxygenated with bubbled nitrogen. […] At time-points of 1 h, 3 h, 4 h, 6 h, 8 h, 9 h, and 24 h, about 5-15 mL was removed by syringe and sterile-filtered into eye-dropper bottles (5 mL/bottle), without nitrogen overlay in the bottle (apparatus was in use for the bulk batches). • Samples of all time-points were diluted to 10 mg/g, and then injected for RP-HPLC analysis with ELK.) detection within 30 minutes of removal from the bulk solution. • After the 24-hour time-point, bulk solutions were sterile-filtered, and each divided into two ˜50 mL portions—one held at 5° C., the other 50-mL portion held at 25° C. All portions were overlaid with nitrogen blown into the vessel. • At the end of the additional 24-hour hold time, each portion was filled into eye-dropper bottles with a nitrogen overlay in the bottle.
The final diluted LACE concentration was targeted to the level appropriate for RP-HPLC analysis (12.8 mg/mL of LACE-Iodide).
The approach was to generate complete inclusion complexes of LACE-Iodide in HP-B-CD, thus preventing any opportunity of aggregation of LACE molecules. Several batches of formulation were prepared using varying molar ratios of LACE-Iodide to HP-B-CD and the growth of aggregative species assessed over time. The formulations were stored at 5° C. The formation of associative species as measured by reverse phase HPLC was then reported as the area percent relative to the main LACE peak area.

[6] = tested on: ocular surface; assay: Ocular irritation in rabbit irritation model (rabbit Draize model); assay type: in vivo
Excerpt: Another issue that confounded the pharmaceutical development of LACE ophthalmic solutions was incidences of ocular surface irritation observed in-vivo in a rabbit irritation model. The invention details unexpected parameters that contributed to, or caused ocular irritation and processes to eliminate or minimize these parameters. These parameters were not related to the formulation composition or properties of the drug substance, factors that normally correlated or attributed to ocular irritation.
FIGS. 12A and 12B generally provide a snapshot of the correlation of irritation to the micellar LACE species over a number of batches compounded.
Example 16 established the correlation between concentration of associative species and ocular irritation in an in-vivo model (rabbit Draize model).

[7] = tested on: bovine calf cornea
Method: as §1, §2

[8] = Osmolality of formulation; assay type: physicochemical
Method: • The requisite osmolality range for drug-containing formulations and placebo is 280-320 mOsm/kg. Preferably, all LACE formulations need to he within 290-310 mOsm/Kg. • Since LACE has contributions to osmolality, each formulation will have varying concentrations of glycerol to achieve the requisite osmolality.
The target for Total Osmolality was 300 mOsm/kg.
Accordingly, a full series of solutions was prepared with slightly altered target osmolalities for the solutions without LACE, and therefore different target glycerol contents. All solutions were prepared using the same Alanine/Benzalkonium Chloride, pH 4.5 stock solution used in the placebos, so that the final composition was consistently: • 0.5% (5 mg/g) Alanine • 0.005% (0.05 mg/g) Benzalkonium Chloride • Small amounts of 1N Sodium Hydroxide, 1N Hydrochloric Acid, to adjust pH to 4.5 • Water for Inhalation (added to final weight of 5.0 g per formulation)

[9] = API (Lot# 011510), RS analyzed Mar. 22, 2016
[10] = API (drug substance), lot AC-LACE-05-39 stored at 5 °C
[11] = Table 16-3, API (drug substance)
[12] = Table 17-1, API (drug substance)
[13] = Table 17-2, API (drug substance)
[14] = Table 17-3, API (drug substance)
[15] = Table 18-1, API (drug substance)
[16] = Table 18-2, API (drug substance)

C[N+](C)(C)CCOC(=O)CCCC[C@@H]1CCSS1.[I-] [API (Lot# 011510)]
API Related Substances, Oxid. LACE RRT 0.48 [1, 9]: 0.08%
API Related Substances, Oxid. LACE RRT 0.52 [1, 9]: 0.04%
API Related Substances, RRT 1.74 [1, 9]: 0.24%
API Related Substances, RRT 2.00 [1, 9]: 0.20%
API Related Substances, Total Imp. [1, 9]: 0.56%
Appearance [2]: Complies

C[N+](C)(C)CCOC(=O)CCCC[C@@H]1CCSS1.[Cl-] [API]
Related Substances RRT 1.00 API ([1]; API (drug substance)): 99.13 Area %
Related Substances RRT 1.65 ([1]; API (drug substance)): 0.34 Area %
Related Substances RRT 4.05 Lipoic Acid ([1]; API (drug substance)): 0.13 Area %
Related Substances, RRT 0.49 ([1]; API (drug substance)): 0.19 Area %
Related Substances, RRT 0.61 Oxidized Lace ([1]; API (drug substance)): 0.04 Area %
Related Substances, RRT 0.68 Oxidized Lace ([1]; API (drug substance)): 0.04 Area %
Related Substances, RRT 1.36 ([1]; API (drug substance)): 0.34 Area %
Related Substances, RRT 1.52 ([1]; API (drug substance)): 0.34 Area %
Related Substances, RRT 1.73 ([1]; API (drug substance)): 0.17 Area %
Related Substances, RRT 1.86 ([1]; API (drug substance)): 0.17 Area %
Related Substances, RRT 4.11 Lipoic Acid ([1]; API (drug substance)): 0.13 Area %
Total Impurities ([1]; API (drug substance)): 0.87 Area %
Related Substances RRT 0.51 ([1]; API (drug substance), lot AC-LACE-05-21 stored at 5 °C): 0.19 Area %
Related Substances RRT 0.51 [1, 10]: 0.10 Area %
Related Substances RRT 2.28 [1, 10]: 0.17 Area %
Related Substances RRT 2.28 ([1]; API (drug substance), lot AC-LACE-05-39 stored at 25 °C): 0.13 Area %
Related Substances RRT 0.51 [1, 11]: 0.10 Area %
Related Substances RRT 0.68 [1, 11]: 0.04 Area %
Related Substances RRT 1.00 [1, 11]: 99.13 Area %
Related Substances RRT 1.65 [1, 11]: 0.34 Area %
Related Substances RRT 2.28 [1, 11]: 0.17 Area %
Related Substances RRT 4.05 [1, 11]: 0.13 Area %
Total Impurities [1, 11]: 0.87 Area %
Related Substances RRT 0.50 [1, 12]: 0.20 Area %
Related Substances RRT 0.59 [1, 12]: 0.04 Area %
Related Substances RRT 1.27 [1, 12]: 0.34 Area %
Related Substances RRT 1.42 [1, 12]: 0.17 Area %
Related Substances RRT 3.00 [1, 12]: 99.13 Area %
Related Substances RRT 3.07 [1, 12]: 0.13 Area %
Total Impurities [1, 12]: 0.87 Area %
Related Substances RRT 0.50 [1, 13]: 0.20 Area %
Related Substances RRT 0.59 [1, 13]: 0.04 Area %
Related Substances RRT 1.00 [1, 13]: 99.13 Area %
Related Substances RRT 1.27 [1, 13]: 0.34 Area %
Related Substances RRT 1.42 [1, 13]: 0.17 Area %
Related Substances, Lipoic Acid (RRT not given) [1, 13]: 0.13 Area %
Total Impurities [1, 13]: 0.87 Area %
Related Substances RRT 0.50 [1, 14]: 0.20 Area %
Related Substances RRT 0.59 [1, 14]: 0.04 Area %
Related Substances RRT 1.00 [1, 14]: 99.13 Area %
Related Substances RRT 1.27 [1, 14]: 0.34 Area %
Related Substances RRT 1.42 [1, 14]: 0.17 Area %
Related Substances RRT 3.07 Lipoic Acid [1, 14]: 0.13 Area %
Total Impurities [1, 14]: 0.87 Area %
Related Substances RRT 0.51 [1, 15]: 0.10 Area %
Related Substances RRT 0.68 [1, 15]: 0.04 Area %
Related Substances RRT 1.00 API [1, 15]: 99.13 Area %
Related Substances RRT 1.65 [1, 15]: 0.34 Area %
Related Substances RRT 2.28 [1, 15]: 0.17 Area %
Related Substances RRT 4.05 Lipoic Acid [1, 15]: 0.13 Area %
Total Impurities [1, 15]: 0.87 Area %
Related Substances RRT 0.51 [1, 16]: 0.10 Area %
Related Substances RRT 0.68 [1, 16]: 0.04 Area %
Related Substances RRT 1.00 API [1, 16]: 99.13 Area %
Related Substances RRT 1.65 [1, 16]: 0.34 Area %
Related Substances RRT 2.28 [1, 16]: 0.17 Area %
Related Substances RRT 4.05 Lipoic Acid [1, 16]: 0.13 Area %
Total Impurities [1, 16]: 0.87 Area %

C[N+](C)(C)CCOC(=O)CCCC[C@@H]1CCSS1 [LACE Chloride, Lipoic Acid Choline Ester Chloride]
permeated species [3]: somewhat more intact LACE permeated
Hygroscopicity [4]: Highly hygroscopic
Solution pH [4]: 7-7.5
logP [4]: < 2
solubility ([4]; in water): > 50 mg/mL
solubility ([4]; organic solvent or mixture, in acetonitrile): > 4 mg/mL
equilibrium concentration of aggregates (% of the API peak) ([5]; after dispersion with agitated stirring): < 1%
percent micellar species (% of the main LACE API Peak) ([5]; formulated under argon and refrigerated conditions): 8-10%
ocular irritation ([6]; solution formulated at refrigerated temperatures): extremely irritating

C[N+](C)(C)CCOC(=O)CCCCC1CCSS1.[I-] (stereo not shown) [LACE Iodide]
overall percent of drug permeated [7]: 3-7%
permeated species [7]: almost entirely lipoic acid
equilibrium concentration of aggregates (% of the API peak) [5]: 39-41%
aggregated species (% of the API) ([5]; at the end of 8 hours of mixing): ≤ 39%
% Associative Species at T0 ([5]; direct dissolution: Buffer with 0.6% NaCl, 1.5% PG): 40.9%
% Associative Species at T0 ([5]; direct dissolution: Buffer with 1.8% NaCl): 34.7%
% Associative Species at T0 ([5]; direct dissolution: Ethanol (78% final), then Buffer (22%)): 0.0%
% Associative Species at T0 ([5]; direct dissolution: Propylene Glycol (10%), then Buffer (90%)): 11.7%

C[N+](C)(C)CCOC(=O)CCCC[C@@H]1CCSS1 [LACE, lipoic acid choline ester]
ocular irritation ([6]; compounded at room temperature): comfortable and non-irritating
additional osmolality for every 1% LACE, average ([8]; earlier formulations): 48 mOsm/kg
additional osmolality for every 1% LACE ([8]; earlier formulations, range): 44-55 mOsm/kg
effect of LACE on osmolality for every 1% ([8]; from Table 6 solutions): 57-60 mOsm/kg

From patent publication US20230135366A1, “LIPOIC ACID CHOLINE ESTER COMPOSITIONS AND METHODS TO STABILIZE INTO […] RELEVANT DRUG PRODUCTS” (NOVARTIS AG, priority 2016, published 2023)
